Laboratory results published in the supplement of paper PMC8149375.

Columns and labels:
Conditions in all cases: treatment: drug + dasatinib (fixed dose, not stated); 5 days
CAKI-1 [1] = assay: GI50 of drug in presence of dasatinib; higher = less potent
Method: (§1)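 Primary HTS combination arm: 8 RCC cell lines treated with 8 doses (up to 10 uM) of each library drug plus a fixed dose of dasatinib (dose not stated) for 5 days; viability read by CellTiter-Glo and normalised to DMSO. GI50 was fitted with XLfit, AUC is the area under the dose-response curve, and minimum viability is the lowest fraction of DMSO viability across doses.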

786-O [2] = assay: as above
Method: as §1

SN12C [3] = assay: as above
Method: as §1

ACHN [4] = assay: as above
Method: as §1

UO-31 [5] = assay: as above
Method: as §1

A498 [6] = assay: as above
Method: as §1

CAKI-1 [7] = assay: AUC of dose-response viability curve, drug + dasatinib, normalised to DMSO (arbitrary (AUC of normalised viability)); higher = less growth inhibition
Method: as §1

786-O [8] = assay: as above
Method: as §1

SN12C [9] = assay: as above
Method: as §1

ACHN [10] = assay: as above
Method: as §1

UO-31 [11] = assay: as above
Method: as §1

A498 [12] = assay: as above
Method: as §1

TK-10 [13] = assay: as above
Method: as §1

769-P [14] = assay: as above
Method: as §1

CAKI-1 [15] = assay: minimum viability across doses, drug + dasatinib, relative to DMSO (fraction); higher = less growth inhibition
Method: as §1

786-O [16] = assay: as above
Method: as §1

SN12C [17] = assay: as above
Method: as §1

ACHN [18] = assay: as above
Method: as §1

UO-31 [19] = assay: as above
Method: as §1

A498 [20] = assay: as above
Method: as §1

TK-10 [21] = assay: as above
Method: as §1

769-P [22] = assay: as above
Method: as §1

TK-10 [23] = assay: GI50 of drug in presence of dasatinib; higher = less potent
Method: as §1

769-P [24] = assay: as above
Method: as §1

## CO[C@H]1C[C@@H]2CC[C@@H](C)[C@@](O)(O2)C(=O)C(=O)N2CCCC[C@H]2C(=O)O[C@H]([C@H](C)C[C@@H]2CC[C@@H](O)[C@H](OC)C2)CC(=O)[C@H](C)/C=C(\C)[C@@H](O)[C@@H](OC)C(=O)[C@H](C)C[C@H](C)/C=C/C=C/C=C/1C [Rapamycin (Sirolimus)] + Cc1nc(Nc2ncc(C(=O)Nc3c(C)cccc3Cl)s2)cc(N2CCN(CCO)CC2)n1 [dasatinib]
CAKI-1 [1]
  GI50 of drug: < 0.003 µM
786-O [2]
  GI50 of drug: < 0.003 µM
SN12C [3]
  GI50 of drug: < 0.003 µM
ACHN [4]
  GI50 of drug: < 0.003 µM
UO-31 [5]
  GI50 of drug: < 0.003 µM
A498 [6]
  GI50 of drug: 1.05 µM
CAKI-1 [7]
  AUC of dose-response viability curve: 1.11
786-O [8]
  AUC of dose-response viability curve: 0.989
SN12C [9]
  AUC of dose-response viability curve: 1.68
ACHN [10]
  AUC of dose-response viability curve: 1.03
UO-31 [11]
  AUC of dose-response viability curve: 1.15
A498 [12]
  AUC of dose-response viability curve: 2.01
TK-10 [13]
  AUC of dose-response viability curve: 1.76
769-P [14]
  AUC of dose-response viability curve: 1.59
CAKI-1 [15]
  minimum viability across doses: 0.256
786-O [16]
  minimum viability across doses: 0.26
SN12C [17]
  minimum viability across doses: 0.451
ACHN [18]
  minimum viability across doses: 0.247
UO-31 [19]
  minimum viability across doses: 0.277
A498 [20]
  minimum viability across doses: 0.52
TK-10 [21]
  minimum viability across doses: 0.445
769-P [22]
  minimum viability across doses: 0.389

## Cc1cn(-c2cc(NC(=O)c3ccc(C)c(Nc4nccc(-c5cccnc5)n4)c3)cc(C(F)(F)F)c2)cn1 [Nilotinib (AMN-107)] + Cc1nc(Nc2ncc(C(=O)Nc3c(C)cccc3Cl)s2)cc(N2CCN(CCO)CC2)n1 [dasatinib]
CAKI-1 [1]
  GI50 of drug: 7.79 µM
786-O [2]
  GI50 of drug: > 10 µM
SN12C [3]
  GI50 of drug: > 10 µM
ACHN [4]
  GI50 of drug: 2.89 µM
UO-31 [5]
  GI50 of drug: 4.88 µM
A498 [6]
  GI50 of drug: > 10 µM
TK-10 [23]
  GI50 of drug: > 10 µM
CAKI-1 [7]
  AUC of dose-response viability curve: 2.38
786-O [8]
  AUC of dose-response viability curve: 2.77
SN12C [9]
  AUC of dose-response viability curve: 2.55
ACHN [10]
  AUC of dose-response viability curve: 2
UO-31 [11]
  AUC of dose-response viability curve: 3.2
A498 [12]
  AUC of dose-response viability curve: 3.37
TK-10 [13]
  AUC of dose-response viability curve: 2.53
769-P [14]
  AUC of dose-response viability curve: 1.98
CAKI-1 [15]
  minimum viability across doses: 0.491
786-O [16]
  minimum viability across doses: 0.717
SN12C [17]
  minimum viability across doses: 0.687
ACHN [18]
  minimum viability across doses: 0.461
UO-31 [19]
  minimum viability across doses: 0.262
A498 [20]
  minimum viability across doses: 0.811
TK-10 [21]
  minimum viability across doses: 0.524
769-P [22]
  minimum viability across doses: 0.331

## Cn1cnc(N)c2ncnc1-2 [3-Methyladenine] + Cc1nc(Nc2ncc(C(=O)Nc3c(C)cccc3Cl)s2)cc(N2CCN(CCO)CC2)n1 [dasatinib]
CAKI-1 [1]
  GI50 of drug: > 10 µM
786-O [2]
  GI50 of drug: > 10 µM
SN12C [3]
  GI50 of drug: > 10 µM
UO-31 [5]
  GI50 of drug: > 10 µM
A498 [6]
  GI50 of drug: > 10 µM
TK-10 [23]
  GI50 of drug: > 10 µM
769-P [24]
  GI50 of drug: > 10 µM
CAKI-1 [7]
  AUC of dose-response viability curve: 2.47
786-O [8]
  AUC of dose-response viability curve: 2.32
SN12C [9]
  AUC of dose-response viability curve: 2.57
ACHN [10]
  AUC of dose-response viability curve: 1.56
UO-31 [11]
  AUC of dose-response viability curve: 4.32
A498 [12]
  AUC of dose-response viability curve: 3.49
TK-10 [13]
  AUC of dose-response viability curve: 2.57
769-P [14]
  AUC of dose-response viability curve: 2.57
CAKI-1 [15]
  minimum viability across doses: 0.673
786-O [16]
  minimum viability across doses: 0.542
SN12C [17]
  minimum viability across doses: 0.703
ACHN [18]
  minimum viability across doses: 0.329
UO-31 [19]
  minimum viability across doses: 1.03
A498 [20]
  minimum viability across doses: 0.947
TK-10 [21]
  minimum viability across doses: 0.691
769-P [22]
  minimum viability across doses: 0.649

## O=c1cc(N2CCOCC2)oc2c(-c3ccccc3)cccc12 + Cc1nc(Nc2ncc(C(=O)Nc3c(C)cccc3Cl)s2)cc(N2CCN(CCO)CC2)n1 [dasatinib]
CAKI-1 [1]
  GI50 of drug: 3.01 µM
786-O [2]
  GI50 of drug: 4.54 µM
SN12C [3]
  GI50 of drug: > 10 µM
UO-31 [5]
  GI50 of drug: 9.2 µM
A498 [6]
  GI50 of drug: > 10 µM
TK-10 [23]
  GI50 of drug: > 10 µM
769-P [24]
  GI50 of drug: 5.32 µM
CAKI-1 [7]
  AUC of dose-response viability curve: 1.98
786-O [8]
  AUC of dose-response viability curve: 2.28
SN12C [9]
  AUC of dose-response viability curve: 2.34
ACHN [10]
  AUC of dose-response viability curve: 1.77
UO-31 [11]
  AUC of dose-response viability curve: 3.24
A498 [12]
  AUC of dose-response viability curve: 2.88
TK-10 [13]
  AUC of dose-response viability curve: 2.49
769-P [14]
  AUC of dose-response viability curve: 2.2
CAKI-1 [15]
  minimum viability across doses: 0.393
786-O [16]
  minimum viability across doses: 0.394
SN12C [17]
  minimum viability across doses: 0.512
ACHN [18]
  minimum viability across doses: 0.362
UO-31 [19]
  minimum viability across doses: 0.457
A498 [20]
  minimum viability across doses: 0.656
TK-10 [21]
  minimum viability across doses: 0.663
769-P [22]
  minimum viability across doses: 0.412

## COc1cc(N2CCC(N3CCN(C)CC3)CC2)ccc1Nc1ncc(Cl)c(Nc2ccccc2S(=O)(=O)C(C)C)n1 [TAE684 (NVP-TAE684)] + Cc1nc(Nc2ncc(C(=O)Nc3c(C)cccc3Cl)s2)cc(N2CCN(CCO)CC2)n1 [dasatinib]
CAKI-1 [1]
  GI50 of drug: 0.224 µM
786-O [2]
  GI50 of drug: < 0.003 µM
SN12C [3]
  GI50 of drug: 0.427 µM
ACHN [4]
  GI50 of drug: 0.0373 µM
A498 [6]
  GI50 of drug: 2.87 µM
TK-10 [23]
  GI50 of drug: 0.64 µM
CAKI-1 [7]
  AUC of dose-response viability curve: 1.51
786-O [8]
  AUC of dose-response viability curve: 1.55
SN12C [9]
  AUC of dose-response viability curve: 1.82
ACHN [10]
  AUC of dose-response viability curve: 1.15
UO-31 [11]
  AUC of dose-response viability curve: 2.04
A498 [12]
  AUC of dose-response viability curve: 2.64
TK-10 [13]
  AUC of dose-response viability curve: 2.06
769-P [14]
  AUC of dose-response viability curve: 1.83
CAKI-1 [15]
  minimum viability across doses: 0.0167
786-O [16]
  minimum viability across doses: 0.0739
SN12C [17]
  minimum viability across doses: 0.0423
ACHN [18]
  minimum viability across doses: 0.0286
UO-31 [19]
  minimum viability across doses: 0.0115
A498 [20]
  minimum viability across doses: 0.348
TK-10 [21]
  minimum viability across doses: 0.206
769-P [22]
  minimum viability across doses: 0.23

## Cl.Cl.Clc1ccc(Nc2nnc(Cc3ccncc3)c3ccccc23)cc1 [Vatalanib dihydrochloride (PTK787)] + Cc1nc(Nc2ncc(C(=O)Nc3c(C)cccc3Cl)s2)cc(N2CCN(CCO)CC2)n1 [dasatinib]
CAKI-1 [1]
  GI50 of drug: 2.76 µM
786-O [2]
  GI50 of drug: > 10 µM
SN12C [3]
  GI50 of drug: > 10 µM
UO-31 [5]
  GI50 of drug: > 10 µM
A498 [6]
  GI50 of drug: > 10 µM
TK-10 [23]
  GI50 of drug: > 10 µM
769-P [24]
  GI50 of drug: 7.92 µM
CAKI-1 [7]
  AUC of dose-response viability curve: 2.04
786-O [8]
  AUC of dose-response viability curve: 2.65
SN12C [9]
  AUC of dose-response viability curve: 2.32
ACHN [10]
  AUC of dose-response viability curve: 1.91
UO-31 [11]
  AUC of dose-response viability curve: 3.35
A498 [12]
  AUC of dose-response viability curve: 3.2
TK-10 [13]
  AUC of dose-response viability curve: 2.63
769-P [14]
  AUC of dose-response viability curve: 2.3
CAKI-1 [15]
  minimum viability across doses: 0.217
786-O [16]
  minimum viability across doses: 0.549
SN12C [17]
  minimum viability across doses: 0.632
ACHN [18]
  minimum viability across doses: 0.474
UO-31 [19]
  minimum viability across doses: 0.834
A498 [20]
  minimum viability across doses: 0.729
TK-10 [21]
  minimum viability across doses: 0.666
769-P [22]
  minimum viability across doses: 0.433
